Reference: patent US11491155B2, “Salt of a pyrimido[6,1-A]isoquinolin-4-one compound” (VERONA PHARMA PLC, priority 2015, dated 2022)

Experiment: Solubility of RPL554 salts in saline solutions, water and aqueous buffer solutions at 25° C. (HPLC)
Format: physicochemical
Settings: 24 hours
Experimental: The behaviour of salts of RPL554 were examined under the following conditions: • Phosphate buffered to pH 3.5 in saline, 0.9% w/w at 25° C. • Acetate buffered to pH 4.5 in saline, 0.9% w/w at 25° C. • Citro-Phosphate buffered to pH 4.5 in saline, 0.9% w/w at 25° C. • Phosphate buffered to pH 6.5 in saline, 0.9% w/w at 25° C. • Saline, 0.7, 0.9 and 1.1% w/w at 25° C. • Deionised water at 25° C.
RPL554 salts and RPL554, ca 50 mg, were suspended in the various aqueous media, 1 ml, with agitation at the specified temperatures for 24 hours. The solids were isolated and dried in vacuo at 45° C. The retained filtrates were examined by HPLC.
Additional RPL554 methane sulfonate salt, ca 50 mg, was charged to the water mixtures at 25° C. and 37.5° C. in order to afford a suspension. In all other cases, suspensions were obtained.
The solubility of the RPL554 was determined by HPLC using a single point calibration and is expressed as RPL554 and not as the salt and are detailed in Table 6 and Table 7 for the various conditions utilised.

In the case of `COc1cc2c(cc1OC)-c1c/c(=N\c3c(C)cc(C)cc3C)n(CCNC(N)=O)c(=O)n1CC2` [Naphthalene-2-sulfonate], the “Solubility as RPL554 (mg/ml) in 0.7 w/w % Saline” value is reported as 0.17 mg/mL, the “Solubility as RPL554 (mg/ml) in 0.9 w/w % Saline” value is reported as 0.09 mg/mL and the “Solubility as RPL554 (mg/ml) in 1.1 w/w % Saline” value is reported as 0.09 mg/mL. For the same compound, the “Solubility as RPL554 (mg/ml) in Water” value (deionised water) was 0.13 mg/mL.
